According to patent publication US20200338084A1, “INHIBITORS OF LOW MOLECULAR WEIGHT PROTEIN TYROSINE PHOSPHATASE (LMPTP) AND USES THEREOF” (Sanford Burnham Prebys Medical Discovery Institute, priority 2018, published 2020):

These compounds were tested against T1, human LMPTP-A (Homo sapiens, UniProt P24666) (assay: Enzyme Assay of Inhibition of LMPTP-A). Conditions: phosphatase assay, OMFP or pNPP substrate, 50 mM Bis-Tris pH 6.0, 37° C.
T1 sequence (P24666 1-158): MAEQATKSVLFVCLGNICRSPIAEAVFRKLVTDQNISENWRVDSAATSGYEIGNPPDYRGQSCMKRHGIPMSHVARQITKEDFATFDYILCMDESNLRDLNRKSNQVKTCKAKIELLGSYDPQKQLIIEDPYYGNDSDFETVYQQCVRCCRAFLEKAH
Assay type: biochemical
Experimental: Phosphatase assays were performed in buffer containing 50 mM Bis-Tris, pH 6.0, 1 mM DTT and 0.01% Triton X-100 at 37° C. For assays conducted with 3-O-methylfluorescein phosphate (OMFP) as substrate, fluorescence was monitored continuously at λex=485 and λem=525 nm. For assays conducted with para-nitrophenylphosphate (pNPP) as substrate, the reaction was stopped by addition of 2× reaction volume of 1 M NaOH, and absorbance was measured at 405 nm. IC50 values of compounds disclosed herein were determined from plots of inhibitor concentration versus percentage of enzyme activity. For inhibitor selectivity assays, each PTP was incubated with either 0.4 mM OMFP or 5 mM pNPP in the presence of 40 μM compound or DMSO. […] For the inhibitor reversibility assay, 50 nM human LMPTP-A was pre-incubated with 10 μM of compound disclosed herein or DMSO for 5 min. The enzyme was diluted 100× in phosphatase assay buffer containing 0.4 mM OMFP and fluorescence was measured at the indicated time points.

Row | Compound | IC50 [nM]
1 | Nc1ncn(Cc2nnn[nH]2)c2ncnc1-2 [3-((1H-tetrazol-5-yl)methyl)-3H-purin-6-amine] | ≥ 20000
2 | Nc1ncn(Cc2c(Cl)cccc2Cl)c2nc(-c3cccc(F)c3)nc1-2 [3-[(2,6-Dichlorophenyl)methyl]-8-(3-fluorophenyl)-3-hydropurine-6-ylamine] | ≤ 1000
3 | Nc1ncn(Cc2c(Cl)cccc2Cl)c2nc(-c3cccnc3)nc1-2 [3-[(2,6-Dichlorophenyl)methyl]-8-(3-pyridyl)-3-hydropurine-6-ylamine] | ≤ 1000
4 | Cc1ccc(-c2nc3c(N)ncn(Cc4c(Cl)cccc4Cl)c-3n2)cc1 [3-[(2,6-Dichlorophenyl)methyl]-8-(4-methylphenyl)-3-hydropurine-6-ylamine] | ≤ 1000
5 | Nc1ncn(Cc2c(Cl)cccc2Cl)c2nc(C3CCNCC3)nc1-2 [3-[(2,6-Dichlorophenyl)methyl]-8-(4-piperidyl)-3-hydropurine-6-ylamine] | ≤ 1000
6 | Nc1ncn(Cc2cccc(Cl)c2Cl)c2ncnc1-2 [3-(2,3-Dichloro-benzyl)-3H-purin-6-ylamine] | 1000 to 20000
7 | Cc1cccc(Cl)c1Cn1cnc(N)c2ncnc1-2 [3-(2-chloro-6-methylbenzyl)-3H-purin-6-amine] | ≤ 1000
8 | Cc1ccncc1-c1nc2c(N)ncn(Cc3c(Cl)cccc3Cl)c-2n1 [3-[(2,6-Dichlorophenyl)methyl]-8-(4-methyl(3-pyridyl))-3-hydropurine-6-ylamine] | ≤ 1000
9 | FC(F)(F)c1ccc(Nc2ncn(Cc3c(Cl)cccc3Cl)c3ncnc2-3)cc1 [3-(2,6-dichlorobenzyl)-N-(4-(trifluoromethyl)phenyl)-3H-purin-6-amine] | 1000 to 20000
10 | Nc1ncn(Cc2nc3ccccc3s2)c2ncnc1-2 [3-(benzo[d]thiazol-2-ylmethyl)-3H-purin-6-amine] | 1000 to 20000
11 | Nc1ncn(Cc2c(Cl)cccc2Cl)c2nc(-c3ccc(F)c(F)c3F)nc1-2 [3-[(2,6-dichlorophenyl)methyl]-8-(2,3,4-trifluorophenyl)-3-hydropurine-6-ylamine] | ≤ 1000
12 | Cc1nc2c(N)ncn(Cc3c(Cl)cccc3Cl)c-2n1 [3-[(2,6-Dichlorophenyl)methyl]-8-methyl-3-hydropurine-6-ylamine] | ≤ 1000
13 | Nc1ncn(Cc2c(Cl)cccc2Cl)c2nc(-c3ccccc3Cl)nc1-2 [3-[(2,6-Dichlorophenyl)methyl]-8-(2-chlorophenyl)-3-hydropurine-6-ylamine] | ≤ 1000
14 | Nc1ncn(Cc2c(Cl)cccc2Cl)c2nc(-c3ccc(F)cc3F)nc1-2 [3-[(2,6-dichlorophenyl)methyl]-8-(2,4-difluorophenyl)-3-hydropurine-6-ylamine] | ≤ 1000
15 | N#Cc1cccc(Nc2ncn(Cc3c(Cl)cccc3Cl)c3ncnc2-3)c1 [3-({3-[(2,6-Dichlorophenyl)methyl]-3-hydropurin-6-yl}amino)benzenecarbonitrile] | ≥ 20000
16 | Nc1ncn(Cc2c(Cl)cccc2Cl)c2nc(Cc3ccccc3)nc1-2 [3-[(2,6-Dichlorophenyl)methyl]-8-benzyl-3-hydropurine-6-ylamine] | ≤ 1000
17 | Clc1cccc(Cl)c1Cn1cnc(NCc2ccco2)c2ncnc1-2 [[3-(2,6-Dichloro-benzyl)-3H-purin-6-yl]-furan-2-ylmethyl-amine] | 1000 to 20000
18 | Nc1ncn(Cc2ccc(Cl)cc2)c2ncnc1-2 [3-(4-Chloro-benzyl)-3H-purin-6-ylamine] | ≥ 20000
19 | Nc1ncn(Cc2ccc(Cl)s2)c2ncnc1-2 [3-((5-chlorothiophen-2-yl)methyl)-3H-purin-6-amine] | 1000 to 20000
20 | Nc1ncn(Cc2c(Cl)cccc2[N+](=O)[O-])c2ncnc1-2 [3-(2-Chloro-6-nitrobenzyl)-3H-purin-6-amine] | ≤ 1000
21 | COc1ccc(Cn2cnc(N)c3ncnc2-3)cc1 [3-(4-Methoxy-benzyl)-3H-purin-6-ylamine] | 1000 to 20000
22 | Nc1ncn(Cc2ccncc2)c2ncnc1-2 [3-Pyridin-4-ylmethyl-3H-purin-6-ylamine] | 1000 to 20000
23 | FC(F)(F)c1cccc(Nc2ncn(Cc3c(Cl)cccc3Cl)c3ncnc2-3)c1 [3-(2,6-dichlorobenzyl)-N-(3-(trifluoromethyl)phenyl)-3H-purin-6-amine] | 1000 to 20000
24 | Nc1ncn(Cc2c(Cl)cccc2C(=O)O)c2ncnc1-2 [2-((6-amino-3H-purin-3-yl)methyl)-3-chlorobenzoic acid] | 1000 to 20000
25 | Nc1ncn(Cc2c(Cl)cccc2Cl)c2nc(C(F)(F)C(F)(F)F)nc1-2 [3-[(2,6-dichlorophenyl)methyl]-8-(1,1,2,2,2-pentafluoroethyl)-3-hydropurine-6-ylamine] | ≥ 20000
26 | Nc1ncn(Cc2c(Cl)cccc2Cl)c2nc(C3CCC3)nc1-2 [3-[(2,6-Dichlorophenyl)methyl]-8-cyclobutyl-3-hydropurine-6-ylamine] | ≤ 1000
27 | Nc1ncn(Cc2cccc(Cl)c2)c2ncnc1-2 [3-(3-chlorobenzyl)-3H-purin-6-amine] | ≥ 20000
28 | Cc1cccc(Cn2cnc(N)c3ncnc2-3)n1 [3-(6-Methyl-pyridin-2-ylmethyl)-3H-purin-6-ylamine] | ≥ 20000
29 | FC(F)(F)Oc1cccc(Nc2ncn(Cc3c(Cl)cccc3Cl)c3ncnc2-3)c1 [3-(2,6-Dichlorobenzyl)-N-(3-(trifluoromethoxy)phenyl)-3H-purin-6-amine] | 1000 to 20000

Further lines, results first:

Row | IC50 [nM] | Compound
30 | 1000 to 20000 | Cc1ccc(CNc2ncn(Cc3c(Cl)cccc3Cl)c3ncnc2-3)cc1 [[3-(2,6-Dichloro-benzyl)-3H-purin-6-yl]-(4-methyl-benzyl)-amine]
31 | 1000 to 20000 | N#Cc1ccc(Cn2cnc(N)c3ncnc2-3)cc1 [4-((6-amino-3H-purin-3-yl)methyl)benzonitrile]
32 | ≥ 20000 | Fc1ccc(Cn2cnc(NCc3ccco3)c3ncnc2-3)cc1 [[3-(4-Fluoro-benzyl)-3H-purin-6-yl]-furan-2-ylmethyl-amine]
33 | ≤ 1000 | Nc1ncn(Cc2c(Cl)cccc2Cl)c2nc(C3C4CC5CC(C4)CC3C5)nc1-2 (centres unmarked) [8-Adamantan-2-yl-3-[(2,6-dichlorophenyl)methyl]-3-hydropurine-6-ylamine]
34 | ≤ 1000 | Clc1ccccc1Nc1ncn(Cc2c(Cl)cccc2Cl)c2ncnc1-2 [{3-[(2,6-Dichlorophenyl)methyl](3-hydropurine-6-yl)}(2-chlorophenyl)amine]
35 | 1000 to 20000 | Clc1cccc(Cl)c1Cn1cnc(Nc2ccc(Br)cc2)c2ncnc1-2 [{3-[(2,6-Dichlorophenyl)methyl](3-hydropurin-6-yl)}(4-bromophenyl)amine]
36 | 1000 to 20000 | Brc1ccccc1Cn1cnc(NCc2ccco2)c2ncnc1-2 [[3-(2-Bromo-benzyl)-3H-purin-6-yl]-furan-2-ylmethyl-amine]
37 | 1000 to 20000 | Fc1cccc(Nc2ncn(Cc3c(Cl)cccc3Cl)c3ncnc2-3)c1 [{3-[(2,6-Dichlorophenyl)methyl](3-hydropurin-6-yl)}(3-fluorophenyl)amine]
38 | 1000 to 20000 | CN(C)C(=O)c1ccc(Nc2ncn(Cc3c(Cl)cccc3Cl)c3ncnc2-3)cc1 [4-((3-(2,6-Dichlorobenzyl)-3H-purin-6-yl)amino)-N,N-dimethylbenzamide]
39 | ≤ 1000 | COc1ccc(Cc2nc3c(N)ncn(Cc4c(Cl)cccc4Cl)c-3n2)cc1 [3-[(2,6-dichlorophenyl)methyl]-8-[(4-methoxyphenyl)methyl]-3-hydropurine-6-ylamine]
40 | ≤ 1000 | Nc1ncn(Cc2c(Cl)cccc2Cl)c2nc(CCc3ccc(F)cc3)nc1-2 [3-[(2,6-dichlorophenyl)methyl]-8-[2-(4-fluorophenyl)ethyl]-3-hydropurine-6-ylamine]
41 | ≥ 20000 | Clc1ccc(Cn2cnc(NCc3ccco3)c3ncnc2-3)c(Cl)c1 [[3-(2,4-Dichloro-benzyl)-3H-purin-6-yl]-furan-2-ylmethyl-amine]
42 | ≤ 1000 | Nc1ncn(Cc2c(Cl)cccc2Cl)c2nc(C3CCS(=O)(=O)CC3)nc1-2 [4-{6-Amino-3-[(2,6-dichlorophenyl)methyl]-3-hydropurin-8-yl}thiane-1,1-dione]
43 | 1000 to 20000 | COCCNc1ncn(Cc2c(Cl)cccc2Cl)c2ncnc1-2 [[3-(2,6-Dichloro-benzyl)-3H-purin-6-yl]-(2-methoxy-ethyl)-amine]
44 | ≤ 1000 | N#Cc1cccc(-c2nc3c(N)ncn(Cc4c(Cl)cccc4Cl)c-3n2)c1 [3-{6-Amino-3-[(2,6-dichlorophenyl)methyl]-3-hydropurin-8-yl}benzenecarbonitrile]
45 | 1000 to 20000 | O=C(Nc1ncn(Cc2c(Cl)cccc2Cl)c2ncnc1-2)c1ccccn1 [Pyridine-2-carboxylic acid [3-(2,6-dichloro-benzyl)-3H-purin-6-yl]-amide]
46 | ≥ 20000 | N#Cc1ccc(Cn2cnc(NCc3ccco3)c3ncnc2-3)cc1 [4-{6-[(Furan-2-ylmethyl)-amino]-purin-3-ylmethyl}-benzonitrile]
47 | ≤ 1000 | 3-[(2,6-dichlorophenyl)methyl]-8-[(4-chlorophenyl)methyl]-3-hydropurine-6-ylamine
48 | ≥ 20000 | c1ccc(-n2cnc(NCc3ccco3)c3ncnc2-3)cc1 [(2-Furylmethyl)(3-phenyl(3-hydropurin-6-yl))amine]
49 | 1000 to 20000 | Fc1cccc(Cl)c1Cn1cnc(NCc2ccco2)c2ncnc1-2 [[3-(2-Chloro-6-fluoro-benzyl)-3H-purin-6-yl]-furan-2-ylmethyl-amine]
50 | 1000 to 20000 | Clc1cccc(Cl)c1Cn1cnc(NCc2cccs2)c2ncnc1-2 [[3-(2,6-Dichloro-benzyl)-3H-purin-6-yl]-thiophen-2-ylmethyl-amine]
